This is an account of results in patent US20240197687A1, “METHODS OF TREATING NEUROINFLAMMATION AND INHIBITING MONOAMINE OXIDASE-A AND RESTORING/UPREGULATING/INCREASING IL-13 AND AND PGC-1 BY ADMINISTERING ORAL DOSAGE FORM CONTAINING MICRONIZED AND NONMICRONIZED PARTICULATE METAXALONE, ALGINIC ACID AND PROPYLENE GLYCOL ALGINATE” (Primus Pharmaceuticals, Inc., priority 2022, published 2024).

Series [1] relates to CCI mice. Conditions: cited from earlier work.
In series [2] the test system is PINP rats. Particulars: cited from earlier work.
In series [3] the test system is RIM rats. Conditions: melatonin supplementation, gastrocnemius muscle; cited from earlier work.
Series [4] concerns FM fibroblasts. Conditions: AMPK activation; cited from earlier work.
Series [5] relates to rat model of ischemia-reperfusion injury. Particulars: cited from earlier work.
Series [6] deals with paclitaxel-induced neuropathic pain. Particulars: via induction of the NRF-2/HO-1 signaling pathway in the spinal cord; cited from earlier work.
Series [7] concerns rat periodontal disease model. Particulars: MAO up-regulation triggered by LPS; cited from earlier work.
Series [8] concerns HMC3 microglial cells. Kind of series: MTT cell viability assay. Particulars: 24, 48 and 72 h, metaxalone 10, 20, 40 μg/mL, staurosporine 100 nM positive control. On the technique in general: Formazan colour is commonly taken as a measure of viable cells.

Take `CC1(C)CC[C@]2(NC(=O)C(C)(F)F)CC[C@]3(C)[C@H](C(=O)C=C4[C@@]5(C)C=C(C#N)C(=O)C(C)(C)[C@@H]5CC[C@]43C)[C@@H]2C1` [RTA-408]: in series [1] (CCI mice, dose-dependent), the “mechanical allodynia (von Frey test)” value is listed as “significantly reversed” and the “thermal hyperalgesia (Hargreaves plantar test)” value was “significantly reversed”. In series [1] (L4-6 spinal cord of CCI mice, NRF-2-dependent), the “mitochondrial biogenesis (MB)” value is “significantly restored”. In addition, the “activity of NRF-2” value in series [1] (L4-6 spinal cord of CCI mice) was “increased”. For the compound `Cc1ccc(CN(CC(O)COc2cccc3[nH]ccc23)C(C)(C)C)cc1` (stereo not drawn) [SR-18292], the “analgesic effect of formoterol against PINP in presence of PGC-1α inhibitor” value in series [2] (PINP rats) was “partially abolished”.

As to `COc1ccc(CC(C)NCC(O)c2ccc(O)c(NC=O)c2)cc1` (stereo not drawn) [formoterol], the “ADRB2 expression, mtDNA copy number and PGC-1α, NRF-1, TFAM protein expression” value in series [2] (spinal cord of PINP rats) is “restored”.

Turning to `COc1ccc2[nH]cc(CCNC(C)=O)c2c1` [melatonin], in series [3], the “studied parameters (PGC-1α, Mfn2, CoQ10), oxidative stress” value was “significantly preserved all the studied parameters”.

As to `CN(C)C(=N)N=C(N)N` [metformin], the “response to moderate oxidative stress and mitochondrial metabolism” value in series [4] is on record as “improved”. `O=C(NCCN1CCOCC1)c1ccc(Cl)cc1` [moclobemide]: the inflammatory process entry in series [5] is “attenuate”.

With `Cc1c(-c2cnccn2)ssc1=S` [oltipraz], the paclitaxel-induced neuropathic pain entry in series [6] is listed as “significantly attenuate”. `NNCCc1ccccc1` [phenelzine]: in series [7], the oxidative stress result is “significantly reduce”.

With `CN[C@@H]1C[C@H]2O[C@@](C)([C@@H]1OC)n1c3ccccc3c3c4c(c5c6ccccc6n2c5c31)C(=O)NC4` [staurosporine], in series [8], the “cell viability (MTT)” value is listed as “significant reduction in cell viability”.
